Assay results: US6420397B1, “Heteroaryl protease inhibitors and diagnostic imaging agents” (3-Dimensional Pharmaceuticals, Inc., priority 1999, dated 2002)

Assays:
[1] = biological target: T1, Human α-thrombin (Homo sapiens, UniProt P00734); test: In vitro inhibition of purified enzymes: thrombin Ki determination (p-nitroanilide substrate hydrolysis); assay type: biochemical; settings: substrate N-succinyl-Ala-Ala-Pro-Arg-p-nitroanilide, 37° C., pH 7.5
T1 construct: Purified human α-thrombin was diluted into assay buffer; purchased Enzyme Research Laboratories (South Bend, Indiana)
Text: (§1) Reagents: All buffer salts were obtained from Sigma Chemical Company (St. Louis, Mo.), and were of the highest purity available. The enzyme substrate N-benzoyl-Ile-Glu-Gly-Arg-p-nitroanilide hydrochloride (Sigma B2291) was obtained from Sigma. N-succinyl-Ala-Ala-Pro-Arg-p-nitroanilide (BACHEM L-1720) was obtained from BACHEM (King of Prussia, Pa.). Human α-thrombin and human factor Xa were obtained from Enzyme Research Laboratories (South Bend, Indiana).
Ki Determinations: All assays are based on the ability of the test compound to inhibit the enzyme catalyzed hydrolysis of a peptide p-nitroanilide substrate. In a typical Ki determination, substrate is prepared in DMSO, and diluted into an assay buffer consisting of 50 mM HEPES, 200 mM NaCl, pH 7.5. The final concentrations for each of the substrates is listed below. In general, substrate concentrations are lower than the experimentally determined value for Km. Test compounds are prepared as a 1.0 mg/ml solution in DMSO. Dilutions are prepared in DMSO yielding 8 final concentrations encompassing a 200 fold concentration range. Enzyme solutions are prepared at the concentrations listed below in assay buffer.
(§2) In a typical Ki determnination, into each well of a 96 well plate is pipetted […] of substrate solution, […] of test compound solution, and the plate allowed to thermally equilibrate at 37° C. in a Molecular Devices plate reader for >15 minutes. Reactions were initiated by the addition of a […] aliquot of enzyme and the absorbance increase at 405 nm is recorded for 15 minutes. Data corresponding to less than 10% of the total substrate hydrolysis were used in the calculations. The ratio of the velocity (rate of change in absorbance as a function of time) for a sample containing no test compound is divided by the velocity of a sample containing test compound, and is plotted as a function of test compound concentration. The data are fit to a linear regression, and the value of the slope of the line calculated. The inverse of the slope is the experimentally determined Ki value.
Thrombin: Thrombin activity was assessed as the ability to hydrolyze the substrate N-succinyl-Ala-Ala-Pro-Arg-p-nitroanilide. Substrate solutions were prepared at a concentration of […] in assay buffer. Final DMSO concentration was 4.3%. Purified human α-thrombin was diluted into assay buffer to a concentration of 15 nM. Final reagent concentrations were: [thrombin]=0.5 nM, [substrate N-succinyl-Ala-Ala-Pro-Arg-p-nitroanilide]=32 mM.

[2] = biological target: T2, human factor Xa (Homo sapiens, UniProt P00742); test: In vitro inhibition of purified enzymes: Factor Xa (p-nitroanilide substrate hydrolysis); assay type: biochemical; settings: read-out: Factor Xa % inhibition @ conc.
T2 construct: purchased Enzyme Research Laboratories (South Bend, Indiana)
Text: as §1
Ki Determinations: All assays are based on the ability of the test compound to inhibit the enzyme catalyzed hydrolysis of a peptide p-nitroanilide substrate. […] In general, substrate concentrations are lower than the experimentally determined value for Km. […]
as §2, with “Data corresponding to less than 10% of the total substrate hydrolysis were used in the calculations.” left out, “The data are fit to a linear regression, and the value of the slope of the line calculated. The inverse of the slope is the experimentally determined Ki value.” left out

T2 sequence (P00742 235-488 limits assumed): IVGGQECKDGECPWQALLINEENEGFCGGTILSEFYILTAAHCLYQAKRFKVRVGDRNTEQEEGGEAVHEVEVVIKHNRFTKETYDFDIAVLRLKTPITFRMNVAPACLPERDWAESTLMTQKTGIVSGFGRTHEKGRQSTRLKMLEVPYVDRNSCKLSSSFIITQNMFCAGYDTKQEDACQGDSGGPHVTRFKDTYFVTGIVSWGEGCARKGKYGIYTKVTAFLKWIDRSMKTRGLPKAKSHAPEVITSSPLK
T2 sequence (P00742 41-179 limits assumed): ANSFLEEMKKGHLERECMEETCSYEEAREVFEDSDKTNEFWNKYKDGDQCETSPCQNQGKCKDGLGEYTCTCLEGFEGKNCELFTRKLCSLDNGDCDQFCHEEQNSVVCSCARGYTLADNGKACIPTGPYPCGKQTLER

| Ki [1] | inhibition at 20 µM ([2]; @ 20 μM) | inhibition at 13 µM ([2]; @ 13 μM) | Compound |
| --- | --- | --- | --- |
| 45 nM | – | – | Cc1ccc(NS(=O)(=O)c2cccc(I)c2)c(=O)n1CC(=O)N[C@@H](CCONC(=N)N)C(=O)c1nccs1 [Example 3, N-{(1S)-1-[2-(Amidinoaminooxy)ethyl]-2-oxo-2-(1,3-thiazol-2-yl)ethyl}-2-(3-{[(3-iodophettyl)sulfonyl]amino}-6-methyl-2-oxohydropyridyl)acetamide] |
| 14 nM | 16% | – | Cc1ccc(NS(=O)(=O)Cc2ccccc2I)c(=O)n1CC(=O)N[C@@H](CCONC(=N)N)C(=O)c1nccs1 [Example 1, N-{(1S)-1-[2-(Amidinoaminooxy)ethyl]-2-oxo-2-(1,3-thiazol-2-yl)ethyl}-2-[3-({[(2-iodophenyl)methyl]sulfonyl}amino)-6-methyl-2-oxohydropyridyl]acetamide] |
| 17 nM | – | – | Cc1ccc(NS(=O)(=O)c2cccc(I)c2)c(=O)n1CC(=O)N[C@@H](CCONC(=N)N)C(=O)c1nc2ccccc2s1 [Example 4, N-{(1S)-1-[2-(Amidinoaminooxy)ethyl]-2-benzothiazol-2-yl-2-oxoethyl}-2-(3-{[(3-iodopheityl)sulfonyl]amino}-6-methyl-2-oxohydropyridyl)acetamide] |
| 75 nM | – | 51% | Cc1ccc(NS(=O)(=O)Cc2ccccc2I)c(=O)n1CC(=O)N[C@@H](CCONC(=N)N)C(=O)c1nc2ccccc2s1 [Example 2, N-{(1S)-1-[2-(Amidinoaminooxy)ethyl]-2-benzothiazol-2-yl-2-oxoethyl}-2-[3-({[(2-iodophenyl)methyl]sulfonyl}amino)-6-methyl-2-oxohydropyridyl]acetamide] |
